According to ChEMBL document CHEMBL4630909 (2021):
Activity calls are given as the source filed them. No cut-off for these calls is given here.

What was measured:
[1] = molecular target: C-C motif chemokine 2 (Homo sapiens, UniProt P13500); assay: In vitro inhibition of MCP-1 in Lipopolysaccharide-stimulated human whole blood; assay type: tissue-based
[2] = molecular target: ATPase family AAA domain-containing protein 2 (Homo sapiens, UniProt Q6PL18); assay: ATAD2A DiscoverX BROMOscan
[3] = molecular target: ATPase family AAA domain-containing protein 2B (Homo sapiens, UniProt Q9ULI0); assay: ATAD2B DiscoverX BROMOscan
[4] = molecular target: Bromodomain adjacent to zinc finger domain protein 2A (Homo sapiens, UniProt Q9UIF9); assay: BAZ2A DiscoverX BROMOscan
[5] = molecular target: Bromodomain adjacent to zinc finger domain protein 2B (Homo sapiens, UniProt Q9UIF8); assay: BAZ2B DiscoverX BROMOscan
[6] = molecular target: Bromodomain-containing protein 1 (Homo sapiens, UniProt O95696); assay: BRD1 DiscoverX BROMOscan
[7] = molecular target: Bromodomain-containing protein 7 (Homo sapiens, UniProt Q9NPI1); assay: BRD7 DiscoverX BROMOscan
[8] = molecular target: T1, Bromodomain-containing protein 8 (Homo sapiens, UniProt Q9H0E9); assay: BRD8(1) DiscoverX BROMOscan
[9] = molecular target: T1, Bromodomain-containing protein 8; assay: BRD8(2) DiscoverX BROMOscan
[10] = molecular target: Bromodomain-containing protein 9 (Homo sapiens, UniProt Q9H8M2); assay: BRD9 DiscoverX BROMOscan
[11] = molecular target: Peregrin (Homo sapiens, UniProt P55201); assay: BRPF1 DiscoverX BROMOscan
[12] = molecular target: Bromodomain and PHD finger-containing protein 3 (Homo sapiens, UniProt Q9ULD4); assay: BRPF3 DiscoverX BROMOscan
[13] = molecular target: Chromatin remodeling regulator CECR2 (Homo sapiens, UniProt Q9BXF3); assay: CECR2 DiscoverX BROMOscan
[14] = molecular target: CREB-binding protein (Homo sapiens, UniProt Q92793); assay: CREBBP DiscoverX BROMOscan
[15] = molecular target: Histone acetyltransferase p300 (Homo sapiens, UniProt Q09472); assay: EP300 DiscoverX BROMOscan
[16] = molecular target: Nucleosome-remodeling factor subunit BPTF (Homo sapiens, UniProt Q12830); assay: FALZ DiscoverX BROMOscan
[17] = molecular target: Histone acetyltransferase KAT2A (Homo sapiens, UniProt Q92830); assay: GCN5L2 DiscoverX BROMOscan
[18] = molecular target: T2, Protein polybromo-1 (Homo sapiens, UniProt Q86U86); assay: PBRM1(2) DiscoverX BROMOscan
[19] = molecular target: T2, Protein polybromo-1; assay: PBRM1(5) DiscoverX BROMOscan
[20] = molecular target: Histone acetyltransferase KAT2B (Homo sapiens, UniProt Q92831); assay: PCAF DiscoverX BROMOscan
[21] = molecular target: SWI/SNF-related matrix-associated actin-dependent regulator of chromatin subfamily A member 2 (Homo sapiens, UniProt P51531); assay: SMARCA2 DiscoverX BROMOscan
[22] = molecular target: SWI/SNF-related matrix-associated actin-dependent regulator of chromatin subfamily A member 4 (Homo sapiens, UniProt P51532); assay: SMARCA4 DiscoverX BROMOscan
[23] = molecular target: Transcription initiation factor TFIID subunit 1 (Homo sapiens, UniProt P21675); assay: TAF1(2) DiscoverX BROMOscan
[24] = molecular target: Transcription initiation factor TFIID subunit 1-like (Homo sapiens, UniProt Q8IZX4); assay: TAF1L(2) DiscoverX BROMOscan
[25] = molecular target: Transcription intermediary factor 1-alpha (Homo sapiens, UniProt O15164); assay: TRIM24(PHD,Bromo.) DiscoverX BROMOscan
[26] = molecular target: E3 ubiquitin-protein ligase TRIM33 (Homo sapiens, UniProt Q9UPN9); assay: TRIM33(PHD,Bromo.) DiscoverX BROMOscan
[27] = molecular target: Bromodomain and WD repeat-containing protein 1 (Homo sapiens, UniProt Q9NSI6); assay: WDR9(2) DiscoverX BROMOscan
[28] = molecular target: 3',5'-cyclic-AMP phosphodiesterase 4B (Homo sapiens, UniProt Q07343); assay: (§1) Cross screening panel
[29] = molecular target: 5-hydroxytryptamine receptor 1B (Homo sapiens, UniProt P28222); assay: as §1
[30] = molecular target: 5-hydroxytryptamine receptor 2A (Homo sapiens, UniProt P28223); assay: as §1
[31] = molecular target: 5-hydroxytryptamine receptor 2C (Homo sapiens, UniProt P28335); assay: as §1
[32] = molecular target: 5-hydroxytryptamine receptor 3A (Homo sapiens, UniProt P46098); assay: as §1
[33] = molecular target: Acetylcholine receptor subunit alpha (Homo sapiens, UniProt P02708); assay: as §1
[34] = molecular target: Acetylcholinesterase (Homo sapiens, UniProt P22303); assay: as §1
[35] = molecular target: Adenosine receptor A2a (Homo sapiens, UniProt P29274); assay: as §1
[36] = molecular target: Alpha-1B adrenergic receptor (Homo sapiens, UniProt P35368); assay: as §1
[37] = molecular target: Alpha-2C adrenergic receptor (Homo sapiens, UniProt P18825); assay: as §1
[38] = molecular target: Amine oxidase [flavin-containing] A (Homo sapiens, UniProt P21397); assay: as §1
[39] = molecular target: Aryl hydrocarbon receptor (Homo sapiens, UniProt P35869); assay: as §1
[40] = molecular target: Aurora kinase B (Homo sapiens, UniProt Q96GD4); assay: as §1
[41] = molecular target: Beta-2 adrenergic receptor (Homo sapiens, UniProt P07550); assay: as §1
[42] = molecular target: Cannabinoid receptor 2 (Homo sapiens, UniProt P34972); assay: as §1
[43] = molecular target: D(1A) dopamine receptor (Homo sapiens, UniProt P21728); assay: as §1
[44] = molecular target: D(2) dopamine receptor (Homo sapiens, UniProt P14416); assay: as §1
[45] = molecular target: Glutamate receptor ionotropic, NMDA 2B (Homo sapiens, UniProt Q13224); assay: as §1
[46] = molecular target: Histamine H1 receptor (Homo sapiens, UniProt P35367); assay: as §1
[47] = molecular target: Kappa-type opioid receptor (Homo sapiens, UniProt P41145); assay: as §1
[48] = molecular target: Mu-type opioid receptor (Homo sapiens, UniProt P35372); assay: as §1
[49] = molecular target: Muscarinic acetylcholine receptor M1 (Homo sapiens, UniProt P11229); assay: as §1

T2 sequence (Q86U86 whole entry): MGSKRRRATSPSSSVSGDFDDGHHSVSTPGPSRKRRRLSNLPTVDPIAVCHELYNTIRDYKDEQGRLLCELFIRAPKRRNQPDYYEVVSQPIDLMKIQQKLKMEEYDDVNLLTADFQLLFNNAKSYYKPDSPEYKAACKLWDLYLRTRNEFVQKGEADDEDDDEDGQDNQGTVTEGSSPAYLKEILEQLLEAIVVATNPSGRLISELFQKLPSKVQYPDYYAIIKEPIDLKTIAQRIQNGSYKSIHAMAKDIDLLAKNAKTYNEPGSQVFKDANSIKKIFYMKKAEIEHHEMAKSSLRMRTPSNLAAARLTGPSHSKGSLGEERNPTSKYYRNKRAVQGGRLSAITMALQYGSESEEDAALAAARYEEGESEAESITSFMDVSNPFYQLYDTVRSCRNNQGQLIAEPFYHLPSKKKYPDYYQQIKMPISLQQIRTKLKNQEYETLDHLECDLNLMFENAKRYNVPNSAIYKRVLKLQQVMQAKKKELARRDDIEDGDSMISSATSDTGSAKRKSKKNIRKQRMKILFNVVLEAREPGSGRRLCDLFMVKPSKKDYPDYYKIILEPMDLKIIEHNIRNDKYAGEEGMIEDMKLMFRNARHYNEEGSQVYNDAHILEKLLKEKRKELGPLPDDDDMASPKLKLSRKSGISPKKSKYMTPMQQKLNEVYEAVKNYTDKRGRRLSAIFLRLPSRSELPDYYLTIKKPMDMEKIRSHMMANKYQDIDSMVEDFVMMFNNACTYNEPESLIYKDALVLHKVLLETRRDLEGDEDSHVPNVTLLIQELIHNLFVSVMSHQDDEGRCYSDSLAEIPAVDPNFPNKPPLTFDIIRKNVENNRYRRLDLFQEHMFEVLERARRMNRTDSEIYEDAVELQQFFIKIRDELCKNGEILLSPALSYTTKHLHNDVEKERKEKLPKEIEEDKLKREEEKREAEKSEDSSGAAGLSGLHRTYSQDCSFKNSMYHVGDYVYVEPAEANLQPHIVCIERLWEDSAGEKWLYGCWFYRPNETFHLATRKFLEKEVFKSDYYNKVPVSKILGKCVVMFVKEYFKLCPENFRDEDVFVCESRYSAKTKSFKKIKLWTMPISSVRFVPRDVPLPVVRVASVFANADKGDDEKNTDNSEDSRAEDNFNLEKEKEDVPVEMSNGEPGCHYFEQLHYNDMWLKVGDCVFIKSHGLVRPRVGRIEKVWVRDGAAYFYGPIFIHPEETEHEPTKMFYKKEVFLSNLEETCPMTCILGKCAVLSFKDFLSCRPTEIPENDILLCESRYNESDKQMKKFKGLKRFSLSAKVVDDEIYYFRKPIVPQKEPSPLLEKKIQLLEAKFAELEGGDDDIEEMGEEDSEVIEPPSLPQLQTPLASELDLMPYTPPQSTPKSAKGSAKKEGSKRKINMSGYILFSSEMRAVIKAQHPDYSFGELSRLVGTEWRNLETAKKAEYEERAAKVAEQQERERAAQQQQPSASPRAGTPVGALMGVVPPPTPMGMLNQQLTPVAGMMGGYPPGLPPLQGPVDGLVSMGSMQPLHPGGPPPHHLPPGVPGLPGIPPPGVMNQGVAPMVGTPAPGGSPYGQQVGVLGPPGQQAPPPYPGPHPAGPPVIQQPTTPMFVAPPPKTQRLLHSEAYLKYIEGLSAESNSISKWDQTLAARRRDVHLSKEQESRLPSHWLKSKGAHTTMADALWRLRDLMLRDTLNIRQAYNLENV
D(2) dopamine receptor, sequence (P14416 whole entry): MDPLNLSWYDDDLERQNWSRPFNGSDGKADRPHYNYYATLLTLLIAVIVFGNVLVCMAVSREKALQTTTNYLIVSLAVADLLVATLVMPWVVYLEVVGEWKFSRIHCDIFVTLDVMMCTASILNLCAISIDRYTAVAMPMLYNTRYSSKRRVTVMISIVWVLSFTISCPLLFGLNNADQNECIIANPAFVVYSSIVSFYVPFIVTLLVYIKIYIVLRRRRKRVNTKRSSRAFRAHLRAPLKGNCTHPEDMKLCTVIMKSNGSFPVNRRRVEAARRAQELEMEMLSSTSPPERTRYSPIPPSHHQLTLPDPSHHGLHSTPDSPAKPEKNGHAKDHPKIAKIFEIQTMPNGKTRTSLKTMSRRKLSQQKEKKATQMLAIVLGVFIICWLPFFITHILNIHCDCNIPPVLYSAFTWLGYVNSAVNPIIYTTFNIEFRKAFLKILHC
Beta-2 adrenergic receptor, sequence (P07550 whole entry): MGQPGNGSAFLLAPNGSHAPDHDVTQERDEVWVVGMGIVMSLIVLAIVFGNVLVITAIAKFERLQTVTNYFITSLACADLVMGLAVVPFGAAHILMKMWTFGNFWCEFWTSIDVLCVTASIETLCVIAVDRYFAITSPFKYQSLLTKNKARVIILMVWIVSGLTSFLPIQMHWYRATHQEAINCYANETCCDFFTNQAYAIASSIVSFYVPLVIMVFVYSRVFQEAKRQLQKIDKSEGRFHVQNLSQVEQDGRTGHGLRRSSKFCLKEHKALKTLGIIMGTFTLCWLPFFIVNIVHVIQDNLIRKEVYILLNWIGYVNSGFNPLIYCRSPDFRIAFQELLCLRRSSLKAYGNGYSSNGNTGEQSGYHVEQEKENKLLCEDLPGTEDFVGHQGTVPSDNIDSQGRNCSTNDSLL
5-hydroxytryptamine receptor 1B, sequence (P28222 whole entry): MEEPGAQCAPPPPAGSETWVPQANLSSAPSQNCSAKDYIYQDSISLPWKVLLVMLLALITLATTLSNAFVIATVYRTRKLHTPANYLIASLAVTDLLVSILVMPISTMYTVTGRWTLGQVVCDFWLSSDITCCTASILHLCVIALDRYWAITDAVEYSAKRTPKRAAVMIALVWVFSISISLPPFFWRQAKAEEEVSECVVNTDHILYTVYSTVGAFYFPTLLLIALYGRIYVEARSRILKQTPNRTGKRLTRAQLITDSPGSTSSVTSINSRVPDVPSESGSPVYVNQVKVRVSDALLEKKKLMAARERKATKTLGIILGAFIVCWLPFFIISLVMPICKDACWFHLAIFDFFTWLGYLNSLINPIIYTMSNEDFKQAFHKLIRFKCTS
5-hydroxytryptamine receptor 3A, sequence (P46098 whole entry): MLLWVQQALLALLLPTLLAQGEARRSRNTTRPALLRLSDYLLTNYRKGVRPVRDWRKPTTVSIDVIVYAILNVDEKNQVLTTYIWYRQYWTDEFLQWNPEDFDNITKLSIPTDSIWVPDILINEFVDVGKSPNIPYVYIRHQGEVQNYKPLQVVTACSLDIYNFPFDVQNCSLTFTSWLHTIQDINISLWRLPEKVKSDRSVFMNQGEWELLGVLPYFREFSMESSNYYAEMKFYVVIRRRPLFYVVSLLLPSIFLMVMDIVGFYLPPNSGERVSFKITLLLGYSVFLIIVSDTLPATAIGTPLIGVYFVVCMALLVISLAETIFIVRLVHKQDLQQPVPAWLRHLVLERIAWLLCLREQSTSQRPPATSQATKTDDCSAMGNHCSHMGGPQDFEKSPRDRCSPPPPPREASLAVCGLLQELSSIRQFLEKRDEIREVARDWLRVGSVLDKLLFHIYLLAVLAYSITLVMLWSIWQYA
5-hydroxytryptamine receptor 2C, sequence (P28335 whole entry): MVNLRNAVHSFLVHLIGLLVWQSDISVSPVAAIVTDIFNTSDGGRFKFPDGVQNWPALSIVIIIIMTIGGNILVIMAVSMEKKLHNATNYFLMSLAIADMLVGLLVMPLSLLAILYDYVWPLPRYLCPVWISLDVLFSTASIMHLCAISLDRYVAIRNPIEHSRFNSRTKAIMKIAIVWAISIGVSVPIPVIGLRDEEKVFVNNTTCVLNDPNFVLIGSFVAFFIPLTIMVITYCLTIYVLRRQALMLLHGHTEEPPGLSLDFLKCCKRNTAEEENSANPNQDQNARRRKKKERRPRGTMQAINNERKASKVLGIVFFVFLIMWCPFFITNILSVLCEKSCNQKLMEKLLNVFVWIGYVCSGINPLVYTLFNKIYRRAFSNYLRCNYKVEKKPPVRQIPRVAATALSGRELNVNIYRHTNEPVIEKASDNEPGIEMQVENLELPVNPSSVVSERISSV
Acetylcholine receptor subunit alpha, sequence (P02708 whole entry): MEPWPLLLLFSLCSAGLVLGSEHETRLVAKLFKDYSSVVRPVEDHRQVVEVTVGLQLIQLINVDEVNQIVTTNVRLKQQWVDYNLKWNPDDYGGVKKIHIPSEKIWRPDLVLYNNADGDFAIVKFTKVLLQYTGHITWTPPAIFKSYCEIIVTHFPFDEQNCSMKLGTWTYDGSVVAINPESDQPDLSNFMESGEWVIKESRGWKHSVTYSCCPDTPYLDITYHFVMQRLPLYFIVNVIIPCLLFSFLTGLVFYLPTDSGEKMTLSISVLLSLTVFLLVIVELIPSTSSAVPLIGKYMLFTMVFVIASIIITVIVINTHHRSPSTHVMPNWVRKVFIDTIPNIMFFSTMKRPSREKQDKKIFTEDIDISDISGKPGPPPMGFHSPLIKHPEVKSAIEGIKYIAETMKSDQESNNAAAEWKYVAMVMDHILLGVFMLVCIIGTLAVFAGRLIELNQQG
5-hydroxytryptamine receptor 2A, sequence (P28223 whole entry): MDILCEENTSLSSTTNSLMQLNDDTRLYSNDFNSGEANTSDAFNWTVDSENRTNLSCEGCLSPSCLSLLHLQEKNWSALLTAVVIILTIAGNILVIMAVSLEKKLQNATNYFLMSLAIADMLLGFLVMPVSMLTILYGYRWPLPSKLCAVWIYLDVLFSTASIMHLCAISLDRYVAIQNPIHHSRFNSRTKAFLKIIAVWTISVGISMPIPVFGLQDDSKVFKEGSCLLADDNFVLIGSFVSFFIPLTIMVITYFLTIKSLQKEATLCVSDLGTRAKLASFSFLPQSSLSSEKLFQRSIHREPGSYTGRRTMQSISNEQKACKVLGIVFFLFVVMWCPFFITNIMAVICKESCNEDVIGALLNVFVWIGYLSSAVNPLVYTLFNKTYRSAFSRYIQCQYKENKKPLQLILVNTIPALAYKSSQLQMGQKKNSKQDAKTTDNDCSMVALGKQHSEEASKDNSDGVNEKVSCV
C-C motif chemokine 2, sequence (P13500 whole entry, the tested form may be a part): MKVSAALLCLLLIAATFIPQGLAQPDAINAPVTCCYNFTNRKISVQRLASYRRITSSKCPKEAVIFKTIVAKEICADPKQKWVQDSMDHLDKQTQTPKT

CNC(=O)c1cc(C(=O)NC2CC2)cn(Cc2ccccc2)c1=O [GSK620]
IC50 [1]: 0.794 µM (active)
Kd [2]: 31.6 µM
Kd [3]: 31.6 µM
Kd [4]: 31.6 µM
Kd [5]: 31.6 µM
Kd [6]: 25.1 µM
Kd [7]: 31.6 µM
Kd [8]: 31.6 µM
Kd [9]: 31.6 µM
Kd [10]: 31.6 µM
Kd [11]: 31.6 µM
Kd [12]: 31.6 µM
Kd [13]: 31.6 µM
Kd [14]: 10 µM
Kd [15]: 7.94 µM
Kd [16]: 25.1 µM
Kd [17]: 31.6 µM
Kd [18]: 31.6 µM
Kd [19]: 31.6 µM
Kd [20]: 31.6 µM
Kd [21]: 31.6 µM
Kd [22]: 31.6 µM
Kd [23]: 3.98 µM
Kd [24]: 25.1 µM
Kd [25]: 31.6 µM
Kd [26]: 31.6 µM
Kd [27]: 31.6 µM
IC50 [28]: > 100 µM
EC50 [29]: > 100 µM
IC50 [29]: > 100 µM
EC50 [30]: > 25.1 µM
IC50 [30]: > 25.1 µM
EC50 [31]: > 25.1 µM
IC50 [31]: > 25.1 µM
EC50 [32]: > 50.1 µM
IC50 [32]: > 50.1 µM
EC50 [33]: > 50.1 µM
IC50 [33]: > 50.1 µM
IC50 [34]: > 100 µM
EC50 [35]: > 100 µM
IC50 [36]: > 25.1 µM
EC50 [37]: > 100 µM
IC50 [38]: > 100 µM
EC50 [39]: > 100 µM
IC50 [40]: > 31.6 µM
EC50 [41]: > 100 µM
IC50 [41]: > 100 µM
EC50 [42]: > 10 µM
IC50 [43]: > 100 µM
EC50 [44]: > 100 µM
IC50 [44]: > 100 µM
IC50 [45]: > 50.1 µM
IC50 [46]: > 25.1 µM
EC50 [47]: > 100 µM
EC50 [48]: > 100 µM
EC50 [49]: > 50.1 µM
